Measurements: PubChem BioAssay (NCI)
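Dose response: 5 concentrations. Exposure: 48 h. Format: 96-well plates. Endpoint: linear interpolation; highest concentration if not reached. GI50 = concentration required for 50% inhibition of growth. TGI: total growth inhibition.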

Key:
Experiment in all cases: NCI tumour cell line growth inhibition, 48 h
786-0 renal = tested on: 786-0 renal
A498 renal = tested on: A498 renal
A549 NSCLC = tested on: A549 NSCLC
ACHN renal = tested on: ACHN renal
BT-549 breast = tested on: BT-549 breast
CAKI-1 renal = tested on: CAKI-1 renal
COLO 205 colon = tested on: COLO 205 colon
DU-145 prostate = tested on: DU-145 prostate
EKVX NSCLC = tested on: EKVX NSCLC
HCC-2998 colon = tested on: HCC-2998 colon
HCT-116 colon = tested on: HCT-116 colon
HCT-15 colon = tested on: HCT-15 colon
HL-60(TB) leukemia = tested on: HL-60(TB) leukemia
HOP-62 NSCLC = tested on: HOP-62 NSCLC
HOP-92 NSCLC = tested on: HOP-92 NSCLC
HT29 colon = tested on: HT29 colon
KM12 colon = tested on: KM12 colon
M14 melanoma = tested on: M14 melanoma
MALME-3M melanoma = tested on: MALME-3M melanoma
MDA-MB-231 breast = tested on: MDA-MB-231 breast
MDA-MB-435 = tested on: MDA-MB-435
MOLT-4 leukemia = tested on: MOLT-4 leukemia
NCI-H226 lung = tested on: NCI-H226 lung
NCI-H23 lung = tested on: NCI-H23 lung
NCI-H460 lung = tested on: NCI-H460 lung
NCI-H522 lung = tested on: NCI-H522 lung
NCI/ADR-RES ovarian = tested on: NCI/ADR-RES ovarian
OVCAR-3 ovarian = tested on: OVCAR-3 ovarian
OVCAR-4 ovarian = tested on: OVCAR-4 ovarian
OVCAR-5 ovarian = tested on: OVCAR-5 ovarian
OVCAR-8 ovarian = tested on: OVCAR-8 ovarian
PC-3 prostate = tested on: PC-3 prostate
RPMI-8226 leukemia = tested on: RPMI-8226 leukemia
RXF 393 renal = tested on: RXF 393 renal
SF-268 CNS = tested on: SF-268 CNS
SF-295 CNS = tested on: SF-295 CNS
SF-539 CNS = tested on: SF-539 CNS
SK-MEL-2 melanoma = tested on: SK-MEL-2 melanoma
SK-MEL-28 melanoma = tested on: SK-MEL-28 melanoma
SK-OV-3 ovarian = tested on: SK-OV-3 ovarian
SNB-19 CNS = tested on: SNB-19 CNS
SNB-75 CNS = tested on: SNB-75 CNS
SR leukemia = tested on: SR leukemia
SW-620 colon = tested on: SW-620 colon
TK-10 renal = tested on: TK-10 renal
U251 CNS = tested on: U251 CNS
UACC-62 melanoma = tested on: UACC-62 melanoma
UO-31 renal = tested on: UO-31 renal
CCRF-CEM leukemia = tested on: CCRF-CEM leukemia
HS 578T breast = tested on: HS 578T breast
IGROV1 ovarian = tested on: IGROV1 ovarian
K-562 leukemia = tested on: K-562 leukemia
LOX IMVI melanoma = tested on: LOX IMVI melanoma
MCF7 breast = tested on: MCF7 breast
SK-MEL-5 melanoma = tested on: SK-MEL-5 melanoma
SN12C renal = tested on: SN12C renal
T-47D breast = tested on: T-47D breast
UACC-257 melanoma = tested on: UACC-257 melanoma

CC(=O)Nc1ccc(S(=O)(=O)/N=c2/sc(S(N)(=O)=O)nn2C)cc1
TGI (786-0 renal): > 100 µM
TGI (A498 renal): > 100 µM
TGI (A549 NSCLC): > 100 µM
TGI (ACHN renal): > 100 µM
TGI (BT-549 breast): > 100 µM
TGI (CAKI-1 renal): > 100 µM
TGI (COLO 205 colon): > 100 µM
TGI (DU-145 prostate): > 100 µM
TGI (EKVX NSCLC): > 100 µM
TGI (HCC-2998 colon): > 100 µM
TGI (HCT-116 colon): > 100 µM
TGI (HCT-15 colon): > 100 µM
TGI (HL-60(TB) leukemia): > 100 µM
TGI (HOP-62 NSCLC): > 100 µM
TGI (HOP-92 NSCLC): > 100 µM
TGI (HT29 colon): > 100 µM
TGI (KM12 colon): > 100 µM
TGI (M14 melanoma): > 100 µM
TGI (MALME-3M melanoma): > 100 µM
TGI (MDA-MB-231 breast): > 100 µM
TGI (MDA-MB-435): > 100 µM
TGI (MOLT-4 leukemia): > 100 µM
TGI (NCI-H226 lung): > 100 µM
TGI (NCI-H23 lung): > 100 µM
TGI (NCI-H460 lung): > 100 µM
TGI (NCI-H522 lung): > 100 µM
TGI (NCI/ADR-RES ovarian): > 100 µM
TGI (OVCAR-3 ovarian): > 100 µM
TGI (OVCAR-4 ovarian): > 100 µM
TGI (OVCAR-5 ovarian): > 100 µM
TGI (OVCAR-8 ovarian): > 100 µM
TGI (PC-3 prostate): > 100 µM
TGI (RPMI-8226 leukemia): > 100 µM
TGI (RXF 393 renal): > 100 µM
TGI (SF-268 CNS): > 100 µM
TGI (SF-295 CNS): > 100 µM
TGI (SF-539 CNS): > 100 µM
TGI (SK-MEL-2 melanoma): > 100 µM
TGI (SK-MEL-28 melanoma): > 100 µM
TGI (SK-OV-3 ovarian): > 100 µM
TGI (SNB-19 CNS): > 100 µM
TGI (SNB-75 CNS): > 100 µM
TGI (SR leukemia): > 100 µM
TGI (SW-620 colon): > 100 µM
TGI (TK-10 renal): > 100 µM
TGI (U251 CNS): > 100 µM
TGI (UACC-62 melanoma): > 100 µM
TGI (UO-31 renal): > 100 µM

S=c1sc2ccccc2n1CN1CCN(Cc2ccccc2)CC1
TGI (786-0 renal): > 100 µM
TGI (A498 renal): > 100 µM
TGI (A549 NSCLC): > 100 µM
TGI (ACHN renal): > 100 µM
TGI (BT-549 breast): > 100 µM
TGI (CAKI-1 renal): > 100 µM
TGI (CCRF-CEM leukemia): > 100 µM
TGI (COLO 205 colon): > 100 µM
TGI (DU-145 prostate): > 100 µM
TGI (EKVX NSCLC): > 100 µM
TGI (HCC-2998 colon): > 100 µM
TGI (HCT-116 colon): > 100 µM
TGI (HCT-15 colon): > 100 µM
TGI (HL-60(TB) leukemia): > 100 µM
TGI (HOP-62 NSCLC): > 100 µM
TGI (HOP-92 NSCLC): > 100 µM
TGI (HS 578T breast): > 100 µM
TGI (HT29 colon): > 100 µM
TGI (IGROV1 ovarian): > 100 µM
TGI (K-562 leukemia): > 100 µM
TGI (KM12 colon): > 100 µM
TGI (LOX IMVI melanoma): > 100 µM
TGI (M14 melanoma): > 100 µM
TGI (MCF7 breast): > 100 µM
TGI (MDA-MB-435): > 100 µM
TGI (MOLT-4 leukemia): > 100 µM
TGI (NCI-H226 lung): > 100 µM
TGI (NCI-H23 lung): > 100 µM
TGI (NCI-H460 lung): > 100 µM
TGI (NCI-H522 lung): > 100 µM
TGI (NCI/ADR-RES ovarian): > 100 µM
TGI (OVCAR-3 ovarian): > 100 µM
TGI (OVCAR-4 ovarian): > 100 µM
TGI (OVCAR-5 ovarian): > 100 µM
TGI (OVCAR-8 ovarian): > 100 µM
TGI (PC-3 prostate): > 100 µM
TGI (RPMI-8226 leukemia): > 100 µM
TGI (RXF 393 renal): > 100 µM
TGI (SF-268 CNS): > 100 µM
TGI (SF-295 CNS): > 100 µM
TGI (SF-539 CNS): > 100 µM
TGI (SK-MEL-2 melanoma): > 100 µM
TGI (SK-MEL-5 melanoma): > 100 µM
TGI (SK-OV-3 ovarian): > 100 µM
TGI (SN12C renal): > 100 µM
TGI (SNB-19 CNS): > 100 µM
TGI (SNB-75 CNS): > 100 µM
TGI (SW-620 colon): > 100 µM
TGI (T-47D breast): > 100 µM
TGI (U251 CNS): > 100 µM
TGI (UACC-257 melanoma): > 100 µM
TGI (UACC-62 melanoma): > 100 µM
TGI (UO-31 renal): > 100 µM

O=C1c2cc(Br)ccc2-c2c1c1ccccc1c(=O)n2CCCCl
GI50 (786-0 renal): 7.95 µM
TGI (786-0 renal): 26.2 µM
GI50 (A549 NSCLC): 3.99 µM
TGI (A549 NSCLC): 36.3 µM
GI50 (ACHN renal): 9.19 µM
TGI (ACHN renal): 30.8 µM
GI50 (BT-549 breast): 44.5 µM
TGI (BT-549 breast): > 100 µM
GI50 (CAKI-1 renal): 2.84 µM
TGI (CAKI-1 renal): 20.6 µM
GI50 (CCRF-CEM leukemia): 8.51 µM
TGI (CCRF-CEM leukemia): > 100 µM
GI50 (DU-145 prostate): 64.7 µM
TGI (DU-145 prostate): > 100 µM
GI50 (EKVX NSCLC): 94.3 µM
TGI (EKVX NSCLC): > 100 µM
GI50 (HCC-2998 colon): 14.1 µM
TGI (HCC-2998 colon): 71.5 µM
GI50 (HCT-116 colon): 3.05 µM
TGI (HCT-116 colon): 17.1 µM
GI50 (HCT-15 colon): 26.8 µM
TGI (HCT-15 colon): > 100 µM
GI50 (HOP-62 NSCLC): 3.34 µM
TGI (HOP-62 NSCLC): 17.8 µM
GI50 (HOP-92 NSCLC): 12.7 µM
TGI (HOP-92 NSCLC): 46.2 µM
GI50 (HS 578T breast): 27.4 µM
TGI (HS 578T breast): 90.7 µM
GI50 (K-562 leukemia): 34.8 µM
TGI (K-562 leukemia): > 100 µM
GI50 (KM12 colon): 16.6 µM
TGI (KM12 colon): > 100 µM
GI50 (LOX IMVI melanoma): 8.56 µM
TGI (LOX IMVI melanoma): 61.3 µM
GI50 (M14 melanoma): 13.2 µM
TGI (M14 melanoma): > 100 µM
GI50 (MCF7 breast): 1.61 µM
TGI (MCF7 breast): > 100 µM
GI50 (MDA-MB-231 breast): 13.1 µM
TGI (MDA-MB-231 breast): 37.1 µM
GI50 (MDA-MB-435): 29.4 µM
TGI (MDA-MB-435): > 100 µM
GI50 (MOLT-4 leukemia): 3.07 µM
TGI (MOLT-4 leukemia): 8.6 µM
GI50 (NCI-H23 lung): 13 µM
TGI (NCI-H23 lung): 40.9 µM
GI50 (NCI-H460 lung): 7.54 µM
TGI (NCI-H460 lung): > 100 µM
GI50 (NCI-H522 lung): 39.8 µM
TGI (NCI-H522 lung): > 100 µM
GI50 (NCI/ADR-RES ovarian): 15.2 µM
TGI (NCI/ADR-RES ovarian): 60.1 µM
GI50 (OVCAR-3 ovarian): 0.964 µM
TGI (OVCAR-3 ovarian): 7.91 µM
GI50 (OVCAR-8 ovarian): 15.9 µM
TGI (OVCAR-8 ovarian): 65.8 µM
GI50 (PC-3 prostate): 18.3 µM
TGI (PC-3 prostate): > 100 µM
GI50 (RPMI-8226 leukemia): 41.6 µM
TGI (RPMI-8226 leukemia): > 100 µM
GI50 (SF-268 CNS): 41.2 µM
TGI (SF-268 CNS): > 100 µM
GI50 (SF-295 CNS): 4.29 µM
TGI (SF-295 CNS): 21.4 µM
GI50 (SF-539 CNS): 25.1 µM
TGI (SF-539 CNS): 68.5 µM
GI50 (SK-MEL-2 melanoma): 76.8 µM
TGI (SK-MEL-2 melanoma): > 100 µM
GI50 (SK-MEL-5 melanoma): 14.4 µM
TGI (SK-MEL-5 melanoma): 77.7 µM
GI50 (SK-OV-3 ovarian): 29.3 µM
TGI (SK-OV-3 ovarian): > 100 µM
GI50 (SN12C renal): 14.1 µM
TGI (SN12C renal): 55.9 µM
GI50 (SNB-19 CNS): 72.2 µM
TGI (SNB-19 CNS): > 100 µM
GI50 (SW-620 colon): 40.9 µM
TGI (SW-620 colon): > 100 µM
GI50 (T-47D breast): > 100 µM
TGI (T-47D breast): > 100 µM
GI50 (U251 CNS): 13.5 µM
TGI (U251 CNS): 36.7 µM
GI50 (UACC-257 melanoma): 17.7 µM
TGI (UACC-257 melanoma): 95.7 µM
GI50 (UACC-62 melanoma): 5.65 µM
TGI (UACC-62 melanoma): 22.3 µM
GI50 (UO-31 renal): 41 µM
TGI (UO-31 renal): > 100 µM
